Data from patent EP2077092A2, “System and Methods for Screening or Analyzing Targets” (Taipei Veterans General Hospital, priority 2007, dated 2009).
Blank lines part the entries; values can stand above or below the compound they belong to.

Legend:
[1] = test system: c-FLIP promoter; test: c-FLIP promoter luciferase assay in fluoxetine-treated NSCs; type: cell-based, Sprague-Dawley rats; details: fluoxetine 20 µm; full-length and deletion mutants of the c-FLIP promoter in NSCs
Description: (§1) All animal used were treated in accordance with the Animal Care and Use Committee guideline at Taipei Veterans General Hospital. Adult Sprague-Dawley rats (8 weeks old, 250 g) were anesthetized with intraperitoneal phenobarbital (Sigma, USA). The location of their brains was mapped: then, the brain was surgically separated from the hippocampus region with the procedure. Tissues from the hippocampus of the adult SD rats were dissociated and incubated in Hank's balanced salt solution (HB'SS) containing collagenase (78 units/ml) and hyaluronidase (38 units/ml) for 10 mins at 37°C. The tissues were then mechanically dissected and placed in a trypsin solution (1.33 mg/ml) at 37°C for another 10 mins. Dissociated cells were then centrifuged at 150g for 5 mins. The enzyme solution was then removed and replaced with serum-free culture media composed of Dulbecco modified Eagle medium (DMEM) and F-12 nutrient (1:1) including insulin (25 µg/mL), transferrin (100 µg/mL), progesterone (20 nM), putrescine (60µM), sodium selenite (30 nM), and human […] epidermal growth factor (EGF) 20 ng/mL and fibroblast growth factor-basic (bFGF) 20 ng/mL (R&D Systems, Minneapolis, MN). Viable cells were counted by trypan blue exclusion and plated as 5000 cells/200 µL per well in 96-well plates (Corning, Acton, MA) with no substrate pretreatment. […]

[2] = test system: c-FLIP; test: c-FLIP mRNA expression in fluoxetine-treated NSCs (real-time RT-PCR); type: cell-based, Sprague-Dawley rats; details: FL-treated NSCs
Description: (§2) All animal used were treated in accordance with the Animal Care and Use Committee guideline at Taipei Veterans General Hospital. Adult Sprague-Dawley rats (8 weeks old, 250 g) were anesthetized with intraperitoneal phenobarbital (Sigma, USA). The location of their brains was mapped: then, the brain was surgically separated from the hippocampus region with the procedure. Tissues from the hippocampus of the adult SD rats were dissociated and incubated in Hank's balanced salt solution (HB'SS) containing collagenase (78 units/ml) and hyaluronidase (38 units/ml) for 10 mins at 37°C. The tissues were then mechanically dissected and placed in a trypsin solution (1.33 mg/ml) at 37°C for another 10 mins. Dissociated cells were then centrifuged at 150g for 5 mins. […] Viable cells were counted by trypan blue exclusion and plated as 5000 cells/200 µL per well in 96-well plates (Corning, Acton, MA) with no substrate pretreatment.
For real-time RT-PCR, the total RNA was extracted using the RNAeasy kit (Qiagen, Valencia, CA, USA) as previously described C.L. Kao et al., Mod Pathol 18 (2005) 769-778.[15]. […] The quantification in the unknown samples was performed by the LightCycler Relative Quantification Software version 3.3 (Roche Molecular Systems, Alameda, CA, USA). […]

[3] = test system: c-FLIPL; test: c-FLIP protein expression in fluoxetine-treated NSCs (Western analysis); type: cell-based, Sprague-Dawley rats; details: FL-treated NSCs
Description: as §2, with “pretreatment. […]” for “pretreatment.”
An avidin-biotin complex method was used for the immunohistochemical staining in the differentiated NSCs. […] Immunoreactive signals were detected with a mixture of biotinylated rabbit antimouse IgG and Fluoesave (Calbiochem, La Jolla, CA, USA) under immunofluorescent microscope (Olympus FV300).

[4] = test system: inactive caspases 8 (pro-form); test: Protein level of inactive caspase 8 (pro-form) in fluoxetine-treated NSCs; type: cell-based, Sprague-Dawley rats; details: different concentrations of fluoxetine treatment
Description: as §1

[5] = test system: inactive caspases 3 (pro-form); test: Protein level of inactive caspase 3 (pro-form) in fluoxetine-treated NSCs; type: cell-based, Sprague-Dawley rats; details: different concentrations of fluoxetine treatment
Description: as §1

[6] = design: species or system Sprague-Dawley rats; details: in vivo, iv, 30 mg/kg, 360 min
Description: Adult, male Sprague-Dawley rats (280-350 g) were obtained from the Laboratory Animal Center at National Yang-Ming University (Taipei, Taiwan). These animals were specifically pathogen-free and were allowed to acclimate to their environmentally controlled quarters (24 ± 1°C and 12:12 h light-dark cycle) for at least 5 days before the experiments began. At the start of experiments, the rats were anesthetized with urethane 0.8 g/ml and chloralose 0.08 g/ml ([…], i.p.). Throughout the experimental period, anesthesia was maintained by administering one quarter of the initial dose at each hour. The experimental animals were kept warm with a heating pad throughout the experiments.
The HPLC system consisted of a chromatographic pump (BAS PM-80, Bioanalytical System, West Lafayette, IN, USA), an on-line injector (CMA/160, Stockholm, Sweden) equipped with a 20 µl sample loop and a UV detector (Soma S-3702, Tokyo, Japan). […] Output signal from the HPLC-UV was recorded using an EZChrom chromatographic data system (Scientific Software, San Ramon, CA, USA). […]
For in vivo recovery, normal saline solution containing cefoperazone (50 or 100 µg/ml) were pumped through the probes at a constant flow rate (2 µl/min) using the infusion pump (CMA/100). After a stabilization period of 2 h, the inlet (Cin) and outlet (Cout) concentrations of cefoperazone were determined by HPLC. […]

[7] = test system: Bcl-2 protein; test: Bcl-2 protein expression in NSCs by western blot and immunohistochemistry; type: cell-based, Sprague-Dawley (SD) rats; details: siRNA or MAPK inhibitor added to IM-treated NSCs
[8] = test system: LPS-treated NSCs; test: MTT cell survival of LPS-treated NSCs; type: cell-based, Sprague-Dawley (SD) rats; details: siRNA or U0126 added to LPS- and IM-treated NSCs
[9] = test system: caspase 8; test: Caspase 8 activity ELISA in LPS-treated NSCs; type: cell-based, Sprague-Dawley (SD) rats; details: siRNA or U0126 (40 µM) added to LPS- and IM-treated NSCs
[10] = test system: caspase 3; test: Caspase 3 activity ELISA in LPS-treated NSCs; type: cell-based, Sprague-Dawley (SD) rats; details: siRNA or U0126 (40 µM) added to LPS- and IM-treated NSCs
[11] = test system: LPS-treated NSCs; test: TUNEL assay of LPS-induced apoptosis in NSCs; type: cell-based, Sprague-Dawley (SD) rats; details: siRNA or U0126 (40 µM) added to LPS- and IM-treated NSCs
[12] = test system: IL-1β; test: IL-1β ELISA in LPS-treated NSCs; type: cell-based, Sprague-Dawley (SD) rats; details: siRNA or U0126 (40 µM) added to LPS- and IM-treated NSCs
[13] = test system: IL-6; test: IL-6 ELISA in LPS-treated NSCs; type: cell-based, Sprague-Dawley (SD) rats; details: siRNA or U0126 (40 µM) added to LPS- and IM-treated NSCs
[14] = test system: TNF-α; test: TNF-α ELISA in LPS-treated NSCs; type: cell-based, Sprague-Dawley (SD) rats; details: siRNA or U0126 (40 µM) added to LPS- and IM-treated NSCs
[15] = test system: NSCs; test: Immunofluorescent assay of MAP-2-positive cells in differentiating NSCs; type: cell-based, Sprague-Dawley (SD) rats; details: siRNA or U0126 added, Day 7 culture of IM-treated NSCs
[16] = test system: NSCs; test: Immunofluorescent assay of serotonin (5-HT)-positive cells in differentiating NSCs; type: cell-based, Sprague-Dawley (SD) rats; details: siRNA or U0126 added, Day 7 culture of IM-treated NSCs
[17] = test system: NSCs; test: Microdialysis with HPLC-ECD of 5-HT in the culture medium of IM-treated NSCs; type: cell-based, Sprague-Dawley (SD) rats; details: siRNA or U0126 added, Day 7 and Day 14, p<0.05

SMILES: CNCCC(Oc1ccc(C(F)(F)F)cc1)c1ccccc1 (centres unmarked) [FL, fluoxetine]
activation of c-FLIP promoter (luciferase assay) [1]: c-FLIP promoter region from bp -414 to -133 was necessary for its activation by FL
mRNA expression of c-FLIP [2]: up-regulated
protein expression of c-FLIP [3]: up-regulated
protein levels of inactive caspases 8 (pro-form) [4]: not decreased
protein levels of inactive caspases 3 (pro-form) [5]: not decreased

cefoperazone in microdialysate from rat biliary duct [6]: 27.8 µg/mL
SMILES: CCN1CCN(C(=O)N[C@@H](C(=O)N[C@@H]2C(=O)N3C(C(=O)O)=C(CSc4nnnn4C)CS[C@H]23)c2ccc(O)cc2)C(=O)C1=O [cefoperazone]

SMILES: N#CC(=C(/N)Sc1ccccc1N)/C(C#N)=C(\N)Sc1ccccc1N [U0126]
Bcl-2 expression induced by IM in NSCs [7]: effectively blocked
cell viability in the LPS-treated NSCs with IM [8]: dramatically decreased
apoptotic activities (caspase 8) in LPS- and IM-treated NSCs [9]: significantly enhanced
apoptotic activities (caspase 3) in LPS- and IM-treated NSCs [10]: significantly enhanced
apoptotic activities (TUNEL) in LPS- and IM-treated NSCs [11]: significantly enhanced
levels of IL-1β in LPS-treated NSCs with IM [12]: significantly increased
levels of IL-6 in LPS-treated NSCs with IM [13]: significantly increased
levels of TNF-α in LPS-treated NSCs with IM [14]: significantly increased
percentages of MAP-2-positive cells in IM-treated NSCs [15]: significantly decrease
percentages of serotonin (5-HT)-positive cells in IM-treated NSCs [16]: significantly decrease
production of 5-HT of the IM-treated NSCs [17]: significantly diminished
